Experimental data as given in patent publication US8283521B2, “Transcription factor gene induced by water deficit conditions and abscisic acid from Helianthus annuus, promoter and transgenic plants” (Bioceres S.A., priority 2003, dated 2012).

Key:
Hahb-4 [1] = test: Hahb-4 expression in treated sunflower seedlings by RNAse protection; format: in vivo, Helianthus annuus
Description: We have analyzed the expression of Hahb-4 under different environmental conditions (i.e. water, osmotic, salt, cold, heat, and oxidative stress) by RNAse protection, which is more sensitive than the Northern technique (FIG. 2).
As many responses to water stress are mediated by ABA, we have also analyzed the effect of this hormone on the expression.
Helianthus annuus L. (sunflower cv. contiflor 15, from Zeneca, Balcarce, Argentina, or cv. Sunweed, from Rhône-Poulenc, Lyon, France) seeds were surface sterilized and grown on filter paper inside Petri dishes for a period of 4 d. Seedlings were then transferred to plastic supports containing Hoagland's medium and grown until they had six leaves (approximately 3 weeks). Water stress was imposed either by transferring 4-day-old-seedlings to Petri dishes with dry filter paper or by removing plants from the hydroponic culture.
For RNAse protection analysis, total RNA (15 μg) prepared as described (Almoguera C., et. al.; Plant molecular Biology 19: 781-792, 1992) was hybridized to a specific Hahb-4 riboprobe synthesized by in vitro transcription using T3 RNA polymerase and [^32P]CTP following the instructions of the manufacturer (Boehringer Mannheim, Mannheim, Germany). The template consisted of an insert corresponding to the coding region between +81 and +429 (FIG. 1 and SEQ ID NO 1) cloned into the SpeI/BamHI sites of pBlue-script SK^−. The BamHI site, not present in the cDNA, derives from amplification with oligonucleotide H41 as described above. Restriction digestion of this template DNA with EcoRI allows transcription of a 411-nucleotide RNA probe that contains 63 nucleotides from the vector (from the T3 promoter to the SpeI site in the polylinker, and from the BamHI to the EcoRI sites). Conditions for riboprobe preparation, hybridization, digestion with RNAse A, and subsequent electrophoretic analysis of protected RNA fragments were as previously described (Coca M: A: et. al.; Plant Molecular Biology 31: 863-876, 1996, herein incorporated as reference).

Hahb-4 [2] = test: Time dependence of the response of Hahb-4 to ABA by Northern analysis; format: in vivo, Helianthus annuus; conditions: 100 μM ABA
Procedure: Total RNA (20 μg) was isolated from seedlings that were either untreated, or treated with 100 μM ABA for different times as indicated in each lane. In the lower panel, the same filter was hybridized with an rRNA probe as a control for RNA loading and transfer.
The high level of induction observed under water stress conditions allowed us to analyze the time-dependent increase in transcript levels by Northern experiments. […] After this time, no further increments in Hahb-4 transcript levels were observed. Re-hydration of the seedlings lowered Hahb-4 transcript levels more slowly, with only about a 50% decrease after 2 h (FIG. 3, lanes 4 and 5). The effect of ABA treatment was also time dependent. […] The high Hahb-4 transcript levels of the invention are reverted after the re-hydration of the sunflower plants, thus indicating again that said gene participates in the response to the water stress.
Total RNA (20 μg) was denatured with formamide and formaldehyde, separated in a 1.5% (w/v) agarose/6% formaldehyde gel, and blotted onto nylon membranes (Hybond N; Amersham-Pharmacia, Buckinghamshire, UK) essentially as described by Sambrook, Fritsch & Maniatis (1989).
Hybridization was performed overnight at 65° C. in 6×SSC (1×SSC is 0.15 M NaCl, 0.015 M Na3-citrate, pH 7.0), 0.1% (w/v) polyvinylpirrolidone, 0.1% (w/v) bovine serum albumin, 0.1% (w/v) Ficoll, 0.5% (w/v) sodium dodecyl sulphate (SDS). […] The filters were autoradiographed using Bio-Max films and transcreen (Eastman Kodak, Rochester, N.Y., USA) overnight. To check the amount of total RNA loaded in each lane, filters were then re-probed with a 25S rRNA from Vicia faba under similar conditions as those described above, except that hybridization was performed at 62° C.

[3] = test system: 5′-CAAT(A/T)ATTG-3′ DNA sequence; test: Electrophoretic mobility shift assay with nuclear extracts of treated seedlings; format: binding, Helianthus annuus; conditions: nuclear extracts from ABA-treated 4-day-old seedlings
Procedure: The presence of functional DNA binding proteins in sunflower nuclei was analyzed by electrophoretic mobility shift assays using a synthetic double-stranded oligonucleotide comprising the sequence 5′-CAAT(A/T)ATTG-3′ (SEQ ID NO:23) bound in vitro by Hahb-4 expressed in bacteria. […] On the contrary, only the slower-migrating complex increased when plants were subjected to water stress. Formation of both complexes was almost completely abolished by an excess of the same unlabelled DNA, but not by an equivalent amount of a similar DNA containing the sequence 5′-CACT(A/T)AGTG-3′ (SEQ ID NO:31) (changed positions underlined) not bound by Hahb-4 (FIG. 6).
Sunflower nuclei and nuclear extracts were prepared from control, water-stressed, or ABA-treated seedlings (4-days-old) according to the technique described in Maliga et al. (Methods in Plant Molecular Biology. A Laboratory Course Manual, pages 233-260. Cold Spring Harbor Laboratory Press, Cold Spring Harbor, N.Y., USA, 1995, herein incorporated by reference). Protein patterns were analyzed by SDS-polyacryla-mide gel electrophoresis (PAGE) and total protein concentration was measured as described Sedmak J. et. al., Analytical Biochemistry 79: 544-552, 1977. […]

Arabidopsis thaliana = test: Germination in the presence of mannitol or NaCl; format: in vivo; conditions: 50, 200, 300 mM mannitol
Procedure: First, the germination process, under conditions imitating the lack of water, such as presence of mannitol, and other conditions generating salt stress, was analyzed. FIGS. 11, 12 and 13 show the germination times of plants transformed according to the invention as compared to control ones. […] This effect is more remarked at higher concentrations of the carbohydrate.
When the germination tests were carried out in the presence of different concentrations of NaCl the obtained results were similar as in the case of mannitol.
The seeds from Arabidopsis thaliana were sterilized by washing with ethanol 70% (v/v) (1 min), chlorine 5%-SDS 1% (15 min) and sterile distilled water (3 times). Then the seeds were suspended in 8 ml of agar 0.1% and sowed in 150 mm Petri plates containing MS medium, with the addition of Gamborg's vitamins. The plates were maintained at 4° C. during two days and then placed into a culture chamber with controlled light and temperature (16 hours light at 24° C. and 8 hours darkness at 21° C.). The required illumination conditions (150-200 μE/m 2) were artificially obtained by keeping the plants at a distance of 25 cm from six fluorescent tubes, intercalating white light and Grolux tubes (from Sylvania) adjacently located.

| Structure (SMILES) | Hahb-4 transcript levels (Hahb-4 [1]; 10 μM ABA) | Hahb-4 expression (Hahb-4 [1]; 100 μM ABA, 24 h, irrigated 4-day-old seedlings) | Hahb-4 transcript levels after 24 h of treatment (Hahb-4 [2]; 24 h) | time of maximum response of Hahb-4 to ABA (Hahb-4 [2]; seedlings) [h] | time until response of Hahb-4 to ABA is detectable (Hahb-4 [2]; seedlings) [h] | amount of both protein complexes binding the Hahb-4 target sequence [3] | Hahb-4 expression (Hahb-4 [1]; 0.5 M mannitol during 4 h, 4-day-old seedlings) | effect of mannitol on germination (Arabidopsis thaliana) |
| --- | --- | --- | --- | --- | --- | --- | --- | --- |
| CC1=CC(=O)CC(C)(C)[C@@]1(O)/C=C/C(C)=C\C(=O)O [ABA, abscisic acid] | smaller, but significant increase in transcript levels | induction was observed | still significantly high | 3 to 6 | ≤ 1 | significantly increased |  |  |
| OC[C@@H](O)[C@@H](O)[C@H](O)[C@H](O)CO [Mannitol, mannitol] |  |  |  |  |  |  | induced Hahb-4 expression, although at lower levels | delays the germination |
